Consider four compounds from PMC8410669 (Neuropharmacology, 2021).

Data set [1] has as its system MOR. Conditions: ref Kandasamy et al., 2021; cited from earlier work.
The conditions of data set [2]: ref Kandasamy et al., 2021; cited from earlier work.
The subject of data set [3] is δ-opioid receptor (DOR). Conditions: ref Stanczyk et al., 2019; cited from earlier work.
Data set [4] has as its system C57BL/6 mice. Kind of data set: Naloxone-precipitated opioid withdrawal paradigm. In kind it is in vivo, mouse. Conditions: morphine 10 mg/kg s.c. or oxycodone 3.5 mg/kg s.c. twice a day for 5 consecutive days.
Data set [5] concerns female C57Bl/6 mice. Kind of data set: Respiratory and heart rate measurements. The format is in vivo, mouse.
Where [6] appears, read: high dose 30 mg/kg s.c., compared with vehicle.

Molecules are shown by their SMILES.

`COc1ccc(C2SCCN2S(=O)(=O)c2ccc(Cl)cc2)cc1Br` (centres unmarked) [BMS-986122]: the “G protein activation vs β-arrestin recruitment” value in data set [1] is given as “enhance G protein activation to a greater extent than β-arrestin recruitment”. Besides, in data set [2], the “antinociception and side effects in vivo” value is “produces antinociception with reduced side effects”.

Consider `Cc1ccccc1COc1ccc(C2C3=C(CC(C)(C)CC3=O)OC3=C2C(=O)CC(C)(C)C3)cc1` [BMS-986187], for which the “G protein activation vs β-arrestin recruitment” value in data set [3] is “enhance G protein activation to a greater extent than β-arrestin recruitment”.

As to `CN1CC[C@]23c4c5ccc(O)c4O[C@H]2[C@@H](O)C=C[C@H]3[C@H]1C5` [morphine], the “naloxone-precipitated withdrawal syndrome of the opioid” value in data set [4] is given as “mild withdrawal syndrome”. In data set [5] (setting [6]), the “breathing rate (respiratory depression)” value is reported as “caused significant respiratory depression” and the heart rates entry is “decrease in heart rates”. Also, the “dose for respiratory depression relative to dose required for analgesia” value in data set [5] (mice) was “three to five times”.

With `COc1ccc2c3c1O[C@H]1C(=O)CC[C@@]4(O)[C@@H](C2)N(C)CC[C@]314` [oxycodone], the “naloxone-precipitated withdrawal syndrome of the opioid” value in data set [4] is on record as “mild withdrawal syndrome”.
